Each structure is given as a SMILES string. pEC50: −log10 of the molar value. Where two headings read alike, the source gives them in different places. Peptide text beside a SMILES is read from it. * marks the point of attachment. Galloyl = O=C(c1cc(O)c(O)c(O)c1)*; X1 = CN(C)c1ccc(C(=O)*)cc1

Data set [1] in a line: MTT cytotoxicity assay in BHK-21 cells. Type of data set: cell-based. Particulars: hamster. On the procedure: (§1) Cytotoxicity in BHK-21 and Huh-7 cells was evaluated using the 3-(4,5-dimethylthiazol-2-yl)-2,5-diphenyltetrazolium bromide (MTT) assay as previously described. The cells (5 × 10^3 per well) were seeded in 96-well culture plates (TPP, Trasadingen, Switzerland). After 24 h, the cells were incubated with the peptides at concentrations of 1.6, 3.1, 6.3, 12.5, 25, 50, and 100 µM for 24 h. Then, the medium containing the peptides was removed, and 100 µL of MTT (Sigma-Aldrich, St. Louis, MO, USA) diluted in DMEM (Cultilab, Campinas, SP, Brazil) (1 mg/mL) was added to each well of the plate (1 mg/mL). After 30 min of incubation at 37 °C, the medium containing MTT (Sigma-Aldrich, St. Louis, MO, USA) was removed, and 100 µL of dimethylsulfoxide (DMSO, Synth, Diadema, SP, Brazil) was added to the cells. The plate was agitated at 200 rpm. After 5 min, the absorbance was measured at a wavelength of 572 nm on a plate reader (FLUOstar Omega/BMG LABTECH, Ortenberg, Germany). The CC50 values were calculated using GraphPad Prism 5.0 software (GraphPad Software, San Diego, CA, USA).
(§2) All the described experiments were performed in three independent events, each of which was carried out in three (cytotoxicity) and four (antiviral activity) technical replicates. The CC50 and EC50 values were determined by nonlinear regression of the dose-response curves (Log [peptide] × response). The statistical significance was determined employing the paired Student’s t-test for parametric results and the Mann–Whitney test for nonparametric data using GraphPad Prism 5.0 software (GraphPad Software, San Diego, CA, USA). A p-value < 0.05 was considered statistically significant.
For orientation: Tetrazolium dyes change colour on reduction, which living cells bring about.

The next data set relates to CHIKV-NLuc. The data set is classed as cell-based, Chikungunya virus. Particulars: CHIKV-NLuc MOI 0.1, 16 h, NLuc activity. On the procedure:
Measurement of the activity of the virus-encoded NanoLuciferase (NLuc) reporter was used to evaluate the antiviral activity of the peptides against CHIKV-NLuc at the end of every assay with the peptides. Cells were infected with CHIKV-NLuc, and the supernatant was aspirated 16 h post-infection (h.p.i.), and each well of the plate was washed with PBS solution. Then, 30 µL of Renilla Luciferase Assay Lysis Buffer (Promega, Madison, WI, USA) was added to the cells. After 30 min, 50 μL of substrate for Renilla Luciferase (Renilla Luciferase assay reagent, Promega, Madison, WI, USA) was automatically injected in the wells into the plate reader (FLUOstar Omega/BMG LABTECH, Ortenberg, Germany), and the light intensity reading was performed. The values obtained are shown as the percentage of protein NLuc activity in the control (samples treated with sterile water).
The effects of the peptides on the CHIKV infectious cycle were analyzed as previously described. BHK-21 and Huh-7 cells (1 × 10^4 per well) were seeded in 96-well white culture plates (Greiner Bio-One, Americana, SP, Brazil) for 24 h. Then, the virus at an MOI of 0.1 and the peptides at the MNTC were simultaneously added to the cells. The plate was incubated at 37 °C for 16 h, and then antiviral activity against CHIKV was evaluated through NLuc activity. […] The SI was calculated using the ratio CC50/EC50.
as §2

Data set [2] is described as follows: MTT cytotoxicity assay in Huh-7 cells. The data set is classed as cell-based. To be noted: human. On the procedure: as §1, §2
The test system of another data set is BHK-21 and Huh-7 cells. The data set can be described thus: MTT cytotoxicity, maximum nontoxic concentration over both cell lines. Type of data set: cell-based, hamster; human. On the procedure:
The cytotoxicity of the peptides GA-Hecate, PSSct1905, and PSSct1910 was evaluated in baby hamster kidney fibroblast cells (BHK-21) and human hepatocarcinoma epithelial cells (Huh-7). We defined the maximum nontoxic concentration (MNTC), expressed in µM, as the highest peptide concentration that kept at least 80% of BHK-21 and Huh-7 cells viable within 24 h.
as §1, with “The plate was agitated at 200 rpm.” left out

The CC50 is the concentration that lowers cell viability or growth by half. A low value points to harm at low concentration. What is called pEC50 is −log10 of the EC50, conventionally taken in molar units. Low values mean a high EC50, high ones a low EC50. With `CC(C)C[C@H](NC(=O)[C@H](C)NC(=O)[C@H](CCCCN)NC(=O)[C@H](CCCCN)NC(=O)[C@H](CC(C)C)NC(=O)[C@H](C)NC(=O)[C@H](CCCCN)NC(=O)[C@H](CCCCN)NC(=O)[C@H](CC(C)C)NC(=O)[C@H](CCCCN)NC(=O)[C@H](CCCCN)NC(=O)[C@H](CC(C)C)NC(=O)[C@H](C)NC(=O)[C@H](CCCCN)NC(=O)[C@H](CCCCN)NC(=O)[C@H](CC(C)C)NC(=O)[C@H](C)NC(=O)[C@H](CCCCN)NC(=O)[C@H](CC(C)C)NC(=O)[C@H](C)NC(=O)[C@H](CC(C)C)NC(=O)[C@H](C)NC(=O)[C@H](Cc1ccccc1)NC(=O)c1cc(O)c(O)c(O)c1)C(N)=O` [GA-Hecate] (Galloyl-FALALKALKKALKKLKKALKKAL-NH2), the CC50 at 24 h in data set [1] was 23.3 µM; in data set [2], 221 µM. In addition, the pEC50 with CHIKV-NLuc (BHK-21 cells) is 5.24; with CHIKV-NLuc (Huh-7 cells), 5.35.

Regarding `CC(C)C[C@H](NC(=O)[C@H](C)NC(=O)[C@H](CCCCN)NC(=O)[C@H](CCCCN)NC(=O)[C@H](CC(C)C)NC(=O)[C@H](C)NC(=O)[C@H](CCCCN)NC(=O)[C@H](CCCCN)NC(=O)[C@H](CC(C)C)NC(=O)[C@H](CCCCN)NC(=O)[C@H](CCCCN)NC(=O)[C@H](CC(C)C)NC(=O)[C@H](C)NC(=O)[C@H](CCCCN)NC(=O)[C@H](CCCCN)NC(=O)[C@H](CC(C)C)NC(=O)[C@H](C)NC(=O)[C@H](CCCCN)NC(=O)[C@H](CC(C)C)NC(=O)[C@H](C)NC(=O)[C@H](CC(C)C)NC(=O)[C@H](C)NC(=O)[C@H](Cc1ccccc1)NC(=O)c1ccc(N(C)C)cc1)C(N)=O` [PSSct1910] (X1-FALALKALKKALKKLKKALKKAL-NH2), the CC50 at 24 h turned out to be 5.4 µM in data set [1] and 7.7 µM in data set [2]. Besides, the pEC50 in the data set on CHIKV-NLuc (BHK-21 cells) is 5.96; in the data set on CHIKV-NLuc (Huh-7 cells), 6.70. The “MNTC (maximum nontoxic concentration)” value with BHK-21 and Huh-7 cells (highest concentration keeping at least 80% of BHK-21 and Huh-7 cells viable within 24 h, MTT) was 1.6 µM.

Turning to `CC(C)C[C@H](NC(=O)[C@H](CCCCN)NC(=O)[C@H](CCCCN)NC(=O)[C@H](CC(C)C)NC(=O)[C@H](C)NC(=O)[C@H](CCCCN)NC(=O)[C@H](CCCCN)NC(=O)[C@H](CC(C)C)NC(=O)[C@H](C)NC(=O)[C@H](CCCCN)NC(=O)[C@H](CC(C)C)NC(=O)[C@H](C)NC(=O)[C@H](CC(C)C)NC(=O)[C@H](C)NC(=O)[C@H](Cc1ccccc1)NC(=O)c1cc(O)c(O)c(O)c1)C(=O)O` [PSSct1905, GA-FALALKALKKALKKL-COOH] (Galloyl-FALALKALKKALKKL-OH), the CC50 at 24 h was found to be 56.5 µM in data set [1] and 205 µM in data set [2]. The pEC50 in the data set on CHIKV-NLuc (BHK-21 cells) was 5.08; with CHIKV-NLuc (Huh-7 cells), 5.15. In addition, the “increase in the CC50 value compared to GA-Hecate” value with BHK-21 and Huh-7 cells (more prominent in BHK-21 cells) is given as “approximately 2 fold”.

These data come from publication PMC10610090, “The Synthetic Peptide GA-Hecate and Its Analogs Inhibit Multiple Steps of the Chikungunya Virus Infection Cycle In Vitro” (Pharmaceuticals, 2023).
